6 molecules from patent US12291521B2, “Indazole compounds as mGluR4 allosteric potentiators, compositions, and methods of treating neurological dysfunction” (Vanderbilt University, priority 2017, dated 2025) can be followed below.

Data set [1] addresses T1, human mGlu4 (Homo sapiens, UniProt Q14833).
T1 construct: expressed in transfected cells; host or cells: CHO (Chinese Hamster Ovary) cells
Briefly: mGlu4 PAM potentiation in human mGlu4/Gqi5 cells with ~EC20 glutamate (Hamamatsu FDSS). It counts as cell-based. Particulars: ~EC20 concentration of glutamate. Here is the method: The disclosed compounds and compositions can be evaluated for their ability to act as a potentiatior of metabotropic glutamate receptor activity, in particular mGluR4 activity, by any suitable known methodology known in the art. For example, Chinese Hamster Ovary (CHO) cells transfected with human mGluR4 or HEK cells co-transfected with rat mGluR4 and the G-protein regulated Inwardly Rectifying Potassium channel (GIRK) were plated in clear bottom assay plates for assay in a Hamamatsu FDSS Fluorometric Plate Reader. The cells were loaded with either a Ca2+-sensitive fluorescent dye or the thallium responsive dye and the plates were washed and placed into a suitable kinetic plate reader. For human mGluR4 assays, a fluorescence baseline was established for 3-5 seconds, the disclosed compounds were then added to the cells, and the response in cells was measured. Approximately two and a half minutes later, a concentration of mGluR4 orthosteric agonist (e.g. glutamate, L-AP4, or L-SOP) eliciting approximately 20% (EC20) of the maximal agonist response was added to the cells, and the response was measured. Two minutes later, a concentration of mGluR4 agonist (e.g. glutamate, L-AP4, or L-SOP) eliciting 80% (EC80) of the maximal agonist response was added to the cells, and the response was measured. For rat mGluR4/GIRK experiments, a baseline was established for approximately five seconds, disclosed compounds were added, and either an EC20 or EC80 concentration of agonist was added approximately two and one half minutes later.
The above described assay operated in two modes. In the first mode, a range of concentrations of the disclosed compounds are added to cells, followed by a single fixed concentration of agonist. If the compound acts as a potentiatior, an EC50 value for potentiation and a maximum extent of potentiation by the compound at this concentration of agonist is determined by non-linear curve fitting. If the compound acts as an antagonist, an IC50 value is determined by non-linear curve fitting. In the second mode, several fixed concentrations of the disclosed compounds are added to various wells on a plate, followed by a range in concentrations of agonist for each concentration of disclosed compound. The EC50 values for the agonist at each concentration of compound are determined by non-linear curve fitting. A decrease in the EC50 value of the agonist with increasing concentrations of the sample compound (a leftward shift of the agonist concentration-response curve) is an indication of the degree of mGluR4 potentiation at a given concentration of the sample compound. A decrease in the maximal response of the agonist with increasing concentrations of the sample compounds, with or without a rightward shift in agonist potency, is an indication of the degree of antagonism at mGluR4. The second mode also indicates whether the sample compounds also affect the maximum response to mGluR4 to agonists.

The nature of data set [2]: Brain-plasma Kp (CNS penetration). It counts as in vivo. To be noted: rat, brain and plasma; species not given.

Molecules are shown by their SMILES. Where two headings read alike, the source gives them in different places.

T1 sequence (Q14833 33-912): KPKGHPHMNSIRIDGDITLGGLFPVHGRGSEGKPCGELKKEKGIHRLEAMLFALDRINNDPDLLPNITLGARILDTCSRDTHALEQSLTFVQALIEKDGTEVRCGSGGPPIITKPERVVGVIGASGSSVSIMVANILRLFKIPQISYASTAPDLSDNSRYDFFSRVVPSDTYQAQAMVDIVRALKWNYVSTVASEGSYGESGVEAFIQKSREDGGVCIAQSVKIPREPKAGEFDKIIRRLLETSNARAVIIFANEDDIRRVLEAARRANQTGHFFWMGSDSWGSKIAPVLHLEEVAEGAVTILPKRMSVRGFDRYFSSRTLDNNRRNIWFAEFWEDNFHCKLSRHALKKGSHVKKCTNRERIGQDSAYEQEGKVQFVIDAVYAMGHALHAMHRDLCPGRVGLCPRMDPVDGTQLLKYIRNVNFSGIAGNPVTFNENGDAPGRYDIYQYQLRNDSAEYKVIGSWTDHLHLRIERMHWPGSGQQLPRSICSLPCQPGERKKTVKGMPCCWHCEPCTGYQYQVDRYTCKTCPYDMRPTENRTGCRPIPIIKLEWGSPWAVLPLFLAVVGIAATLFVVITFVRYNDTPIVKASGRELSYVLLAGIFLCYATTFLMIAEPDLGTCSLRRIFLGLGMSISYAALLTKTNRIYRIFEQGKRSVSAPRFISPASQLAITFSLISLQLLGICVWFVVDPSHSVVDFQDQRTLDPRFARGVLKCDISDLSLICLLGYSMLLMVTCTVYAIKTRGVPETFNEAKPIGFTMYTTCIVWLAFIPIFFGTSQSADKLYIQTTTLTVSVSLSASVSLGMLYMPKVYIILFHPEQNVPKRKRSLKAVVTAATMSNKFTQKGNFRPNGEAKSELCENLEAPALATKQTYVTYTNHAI

Usually EC50 stands for the concentration that produces a half-maximal response. Broadly, the Kp is the ratio of the level in a tissue or fluid to that in plasma or blood. Consider `Cn1nc(OCC2CCCOC2)c2ccc(NC(=O)c3ccc(F)cn3)cc21` (stereo not shown), for which the EC50 in data set [1] (second chart, read-out: hmGluR4 PAM EC50) came to 0.0992 µM. Further, the partition ratio (Kp) in data set [2] amounted to 3.29. Regarding `CC(C)COc1nn(C)c2cc(Nc3n[nH]c4cccnc34)ccc12` [Compound 3], in data set [1] (read-out: mGlu4 PAM EC50), the EC50 is 0.231 µM. Still for that read-out and setting: for `Cc1ccnc(C(=O)Nc2ccc3c(OCC4CCOC4)nn(C)c3c2)c1` (stereo not shown) [Compound 98] the value was 0.991 µM; for `Cn1nc(OCc2cccnc2)c2ccc(Nc3n[nH]c4cccnc34)cc21` [Compound 6], 0.0827 µM. Take `Cc1cc(COc2nn(C)c3cc(Nc4n[nH]c5cccnc45)ccc23)on1` [Compound 2]: in data set [1] (read-out: mGlu4 PAM EC50), the EC50 stood at 0.104 µM.

As for `CC(C)Oc1nn(C)c2cc(Nc3n[nH]c4cccnc34)ccc12` [Compound 1], the EC50 in data set [1] (read-out: mGlu4 PAM EC50) was 0.413 µM.
